Patent publication US12707888B2, “Asymmetric donor-acceptor molecular dyes” (THE UNIVERSITY OF NORTH CAROLINA AT CHARLOTTE, priority 2019, dated 2026)

Columns and labels:
[1] = tested on: HEK 293T cells; assay: Annexin V-Cy5 cytotoxicity; assay type: cell-based, Human; conditions: 500 nM dye for 15 min
Experimental: FIG. 12C provides Annexin V-Cy5 staining of HEK 293T cells incubated with DMSO (Veh.), VF2.1.Cl, and Bu2N-TTz-Py. Apoptosis for control (incubated cells 65° C., 10 min). Percentages of cytotoxicity were calculated as number of 100×Cy5 positive cells per number of nuclei stained. Error bars represent S.E.M. of three independent experiments, n=250 cells. Scale bars=10 μm.
Lastly, the cellular toxicities of Bu2N-TTz-Py and VF2.1.Cl were characterized using Annexin V-Cy5 staining of phosphatidylserine. HEK 293T cells were labelled with Bu2N-TTz-Py or VF2.1.Cl for 15 min, incubated with Annexin V-Cy5 for 20 min in the dark, washed, and fixed with 4% paraformaldehyde before imaging. As a positive control, apoptosis was induced via high-temperature incubation (65° C., 10 min).
Cellular localization: Time-lapse imaging was performed to probe the membrane localization of Bu2N-TTz-Py at longer time scale. […] Intensity values at plasma membrane (IPM) were calculated by drawing regions of interest (ROI) around the whole cell and subtracting intracellular intensity (IIM, ROI drawn within the cell) for Bu2N-TTz-Py and CellMask images, respectively. […] Cytotoxicity percentage is calculated as number of Annexin V-Cy5 positive cells to total number of nuclear stained cells. Number of cells quantification were performed using Analyze particle function of ImageJ program.

[2] = UV-Vis absorbance, fluorescence emission and quantum yield in organic solvents; assay type: physicochemical
Experimental: The absorption, emission, and fluorescence lifetime characteristics of all four TTz dyes were recorded in a variety of organic solvents (FIGS. 7A-7B, Table of FIG. 8). Additionally, HOMO/LUMO levels of the TTz dyes were determined computationally in Spartan 16 using B3LYP/6-31g. Molar absorptivities of all the TTz dyes ranged from 13,000 to 86,000 cm^−1M^−1. […] However, the peak absorbance of Bu2N-TTz-Py in DCM was slightly red-shifted as compared to that of Ph2N-TTz-Py (λmax, abs=429 nm vs λmax, abs=422 nm in DCM), which is attributed to the diphenylamine moiety having weaker donor characteristics. […] Due to the low estimated ground state dipole moments of the TTz dyes (μ=6-8 D), their wavelengths of absorbance remained relatively solvent independent (st. dev.=±11 nm).
4-pyridine carboxaldehyde, 4-(dibutylamino)benzaldehyde, 4-(diphenylamino)benzaldehyde, terephthalaldehyde, dithiooxamide, and all solvents used for spectroscopic measurements were purchased from Sigma-Aldrich and used without further purification. ^1H and ^13CNMR measurements were obtained with either a JEOL 300 MHz NMR or a JEOL 500 MHz NMR. High resolution mass spectra were obtained using a Thermo Fisher Scientific MSQ Plus Single Quadrupole Mass Spectrometer. Solution-state UV-Vis spectra were collected on a Cary 300 UV-Vis spectrophotometer. Time-resolved measurements were taken on a Jobin Yvon-Spex Fluorolog equipped with a 389 nm diode laser for time-resolved PL decay measurements. Igor Pro 6.3 software was used to fit PL(t) decay data to single/multiple exponential decays. Quantum yields were calculated using 9,10-diphenylanthracene as a reference (quantum yield [ΦF] in cyclohexane=0.97).^40-41 Density functional theory (DFT) calculations were performed with Spartan computational software using B3LYP^42-43 density functional and 6-31G*^44 basis set. Temperature studies were conducted using a 10 μM Bu2N-TTz-Py MeTHF solution placed inside of a Norrell 502 NMR tube and sequentially submerged in the following liquid N2 baths:octanol (−16° C.), acetonitrile (−41° C.), acetone (−94° C.), pentane (−131° C.), MeTHF (−136° C.), and liquid N2 itself (−196° C.). The phosphorescence spectrum of Bu2N-TTz-Py (see S2) was collected similarly at −196° C. by pumping with 389 nm light while inside a liquid nitrogen bath and then probing the emission within 2 sec of removing from the bath. Human embryonic kidney cells (HEK 293T) were a kind gift from Prof. Bryan Dickinson, and Mouse macrophage J774A.1 cells were a kind gift from Prof. Deborah Nelson at the University of Chicago. Cells were cultured in Dulbecco's Modified Eagle's Medium (Invitrogen Corporation, USA) containing 10% heat inactivated Fetal Bovine Serum (FBS) (Invitrogen Corporation, USA), 100 U/mL penicillin, and 100 μg/mL streptomycin. Cells were maintained at 37° C. under 5% CO2.

[3] = Solubility in aqueous environments; assay type: physicochemical

- quantum yield ΦMeOH ([2]; MeOH, reference 9,10-diphenylanthracene): 0.04
- QY in aqueous environments ([2]; aqueous environments): low QY
- quantum yield Φhex ([2]; hex, reference 9,10-diphenylanthracene): 0.93
- peak absorbance λmax, abs ([2]; in DCM): 429 nm
- solubility in aqueous environments [3]: poor solubility
Compound: CCCCN(CCCC)c1ccc(-c2nc3sc(-c4ccncc4)nc3s2)cc1 [Bu2N-TTz-Py, 2-(N,N-dibutyl-4-aminophenyl)-5-(4-pyridyl) thiazolo[5,4-d]thiazole]
- cytotoxicity (Annexin V-Cy5 staining) [1]: insignificant cytotoxicity
